Laboratory results as given in patent US20160193206A1, “BET-PROTEIN-INHIBITING DIHYDROPYRIDOPYRAZINONES” (BAYER PHARMA AKTIENGESELLSCHAFT, priority 2012, published 2016).

What was measured:
MOLM-13 cell line = assay: MOLM-13 cell proliferation assay (alamarBlue); format: cell-based; conditions: Homo sapiens, inhibition of proliferation of MOLM-13 cells (acute myeloid leukaemia), 96 hours incubation
Summary of the method: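 MOLM-13 (human AML) cells were treated with compound dilutions for 96 h at 37 °C after overnight plating, and viability was read by alamarBlue fluorescence (ex 530/em 590 nm). Pre-treatment readings were subtracted from end-point readings, and IC50 was calculated relative to buffer-only controls.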

[1] = target: T1, BRD4 bromo domain 1 [BRD4(1)] (Homo sapiens, UniProt O60885); assay: BRD4(1)/acetylated peptide H4 binding assay (TR-FRET); conditions: inhibition of interaction between His6-tagged BRD4(1) (amino acids 67-152) and acetylated histone H4 peptide
T1 construct: N-terminally His6-tagged BRD4(1) (amino acids 67-152); made in house; host or cells: E. coli
Summary of the method: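 TR-FRET measured displacement of a biotinylated tetra-acetylated H4 peptide from His6-BRD4(1) (aa 67-152, E. coli-expressed, typically 10 nM) in HEPES pH 7.5 buffer. Compounds were tested at 11 concentrations (0.1 nM–20 μM), with 10 min preincubation, then 1 h at 22 °C and ≥3 h at 4 °C. The 665/620 nm ratio gave IC50 by 4-parameter fit.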

[2] = target: T2, BRD4 bromo domain 2 [BRD4(2)] (Homo sapiens, UniProt O60885); assay: BRD4(2)/acetylated peptide H4 binding assay (TR-FRET); conditions: inhibition of interaction between His6-tagged BRD4(2) (amino acids 357-445) and acetylated histone H4 peptide
T2 construct: N-terminally His6-tagged BRD4(2) (amino acids 357-445); made in house; host or cells: E. coli
Summary of the method: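 TR-FRET displacement of biotinylated tetra-acetylated H4 peptide from His6-BRD4(2) (aa 357-445, E. coli-expressed), 100 nM final, in HEPES pH 7.5 buffer; 11 compound concentrations 0.1 nM-20 μM, 10 min preincubation, then 1 h 22 °C plus ≥3 h 4 °C. 665/620 ratio read; IC50 by 4-parameter fit.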

IC50 (MOLM-13 cell line) [nM]	IC50 [1] [nM]	IC50 [2] [nM]	Structure (SMILES)
233	239	120	COc1cc(C(=O)N[C@H]2CC[C@H](N3CCN(CC4CC4)CC3)CC2)ccc1Nc1ccc2c(n1)N(C1CCCCC1)[C@H](C)C(=O)N2C [Example 70, 4-{[(3R)-4-Cyclohexyl-1,3-dimethyl-2-oxo-1,2,3,4-tetrahydropyrido[2,3-b]pyrazin-6-yl]amino}-N-{trans-4-[4-(cyclopropylmethyl)piperazin-1-yl]cyclohexyl}-3-methoxybenzamide]
254	131	118	COc1cc(C(=O)NC2CN(C)C2)ccc1Nc1ccc2c(n1)N(C1CCCCC1)[C@H](C)C(=O)N2C [Example 72, 4-{[(3R)-4-Cyclohexyl-1,3-dimethyl-2-oxo-1,2,3,4-tetrahydropyrido[2,3-b]pyrazin-6-yl]amino}-3-methoxy-N-(1-methylazetidin-3-yl)benzamide]
350	149	82	C[C@@H]1C(=O)N(C)c2ccc(Nc3ccc(C(=O)N4CC5(CCS5(=O)=O)C4)cc3)nc2N1Cc1ccccc1 [Example 75, (3R)-4-Benzyl-6-({4-[(1,1-dioxido-1-thia-6-azaspiro[3.3]hept-6-yl)carbonyl]phenyl}amino)-1,3-dimethyl-3,4-dihydropyrido[2,3-b]pyrazin-2(1H)-one]
242	55	103	COc1cc(C(=O)NC2CCN(C(C)=O)CC2)ccc1Nc1ccc2c(n1)N(Cc1ccccc1)[C@H](C)C(=O)N2C [Example 77, N-(1-Acetylpiperidin-4-yl)-4-{[(3R)-4-benzyl-1,3-dimethyl-2-oxo-1,2,3,4-tetrahydropyrido[2,3-b]pyrazin-6-yl]amino}-3-methoxybenzamide]
243	153	111	CC(=O)N1CCC(NC(=O)c2ccc(Nc3ccc4c(n3)N(Cc3ccccc3)[C@H](C)C(=O)N4C)cc2)CC1 [Example 78, N-(1-Acetylpiperidin-4-yl)-4-{[(3R)-4-benzyl-1,3-dimethyl-2-oxo-1,2,3,4-tetrahydropyrido[2,3-b]pyrazin-6-yl]amino}benzamide]
282	120	51	COc1cc(C(=O)NC2CCC(O)CC2)ccc1Nc1ccc2c(n1)N(Cc1ccccc1)[C@H](C)C(=O)N2C (stereo partly drawn) [Example 79, 4-{[(3R)-4-Benzyl-1,3-dimethyl-2-oxo-1,2,3,4-tetrahydropyrido[2,3-b]pyrazin-6-yl]amino}-N-(4-hydroxycyclohexyl)-3-methoxybenzamide]
170	137	138	COc1cc(C(=O)N2CCN(C(C)C)CC2)ccc1Nc1ccc2c(n1)N(Cc1ccccc1)[C@H](C)C(=O)N2C [Example 80, (3R)-4-Benzyl-6-[(2-methoxy-4-{[4-(propan-2-yl)piperazin-1-yl]carbonyl}phenyl)amino]-1,3-dimethyl-3,4-dihydro pyrido[2,3-b]pyrazin-2(1H)-one]
96	89	23	C[C@@H]1C(=O)N(C)c2ccc(Nc3ccc(C(=O)NCCN4CCN(C)CC4)cc3)nc2N1Cc1ccccc1 [Example 81, 4-{[(3R)-4-Benzyl-1,3-dimethyl-2-oxo-1,2,3,4-tetrahydropyrido[2,3-b]pyrazin-6-yl]amino}-N-[2-(4-methylpiperazin-1-yl)ethyl]benzamide]
131	40	48	COc1cc(C(=O)NCCN2CCN(C)CC2)ccc1Nc1ccc2c(n1)N(Cc1ccccc1)[C@H](C)C(=O)N2C [Example 82, 4-{[(3R)-4-Benzyl-1,3-dimethyl-2-oxo-1,2,3,4-tetrahydropyrido[2,3-b]pyrazin-6-yl]amino}-3-methoxy-N-[2-(4-methylpiperazin-1-yl)ethyl]benzamide]
122	133	61	COc1cc(C(=O)N2CC3(COC3)C2)ccc1Nc1ccc2c(n1)N(Cc1ccccc1)[C@H](C)C(=O)N2C [Example 83, (3R)-4-Benzyl-6-{[2-methoxy-4-(2-oxa-6-azaspiro[3.3]hept-6-ylcarbonyl)phenyl]amino}-1,3-dimethyl-3,4-dihydropyrido[2,3-b]pyrazin-2(1H)-one]
353	154	135	COc1cc(C(=O)NCCN2CCN(C)CC2)ccc1Nc1ccc2c(n1)N(C1CCCCCC1)[C@H](C)C(=O)N2C [Example 91, 4-{[(3R)-4-Cycloheptyl-1,3-dimethyl-2-oxo-1,2,3,4-tetrahydropyrido[2,3-b]pyrazin-6-yl]amino}-3-methoxy-N-[2-(4-methylpiperazin-1-yl)ethyl]benzamide]
316	145	104	CC(C)N1c2nc(Nc3ccc(S(=O)(=O)N4CCN(C)CC4)cc3)ccc2N(C)C(=O)[C@H]1C [Example 99, (3R)-1,3-Dimethyl-6-({4-[(4-methylpiperazin-1-yl)sulphonyl]phenyl}amino)-4-(propan-2-yl)-3,4-dihydropyrido[2,3-b]pyrazin-2(1H)-one]
336	156	71	CC(C)N1c2nc(Nc3ccc(S(=O)(=O)N(C)C)cc3)ccc2N(C)C(=O)[C@H]1C [Example 100, 4-{[(3R)-1,3-Dimethyl-2-oxo-4-(propan-2-yl)-1,2,3,4-tetrahydropyrido[2,3-b]pyrazin-6-yl]amino}-N,N-dimethylbenzenesulphon-amide]
226	134	105	CC(C)N1c2nc(Nc3ccc(S(=O)(=O)N4CCOCC4)cc3)ccc2N(C)C(=O)[C@H]1C [Example 101, (3R)-1,3-Dimethyl-6-{[4-(morpholin-4-ylsulphonyl)phenyl]amino}-4-(propan-2-yl)-3,4-dihydropyrido[2,3-b]pyrazin-2(1H)-one]
214	100	90	CC(C)N1CCN(S(=O)(=O)c2ccc(Nc3ccc4c(n3)N(C3CCCC3)[C@H](C)C(=O)N4C)cc2)CC1 [Example 102, (3R)-4-Cyclopentyl-1,3-dimethyl-6-[(4-{[4-(propan-2-yl)piperazin-1-yl]sulphonyl}phenyl)amino]-3,4-dihydropyrido[2,3-b]pyrazin-2(1H)-one]
177	78	51	C[C@@H]1C(=O)N(C)c2ccc(Nc3ccc(S(=O)(=O)N(C)C)cc3)nc2N1C1CCCC1 [Example 103, 4-{[(3R)-4-Cyclopentyl-1,3-dimethyl-2-oxo-1,2,3,4-tetrahydropyrido[2,3-b]pyrazin-6-yl]amino}-N,N-dimethylbenzenesulphonamide]
255	201	241	CC1C(=O)N(C)c2ccc(Nc3ccc(S(=O)(=O)NC4CCN(C)CC4)cc3)nc2N1c1ccccc1 (stereo not drawn) [Example 107, 4-[(1,3-Dimethyl-2-oxo-4-phenyl-1,2,3,4-tetrahydropyrido[2,3-b]pyrazin-6-yl)amino]-N-(1-methylpiperidin-4-yl)benzenesulphonamide]
